Laboratory results taken from publication PMC9408887 (International Journal of Molecular Sciences, 2022).
Read-outs that look alike come from different tables or passages of the source.

Columns and labels:
Bla2 [1] = conditions: cited from earlier work
Bla2 [2] = molecular target: T1, Bla2 (Bacillus anthracis, UniProt Q93T40); test: biochemical; type: biochemical
Bla2 [3] = molecular target: T1, Bla2; type: biochemical

T1 sequence (Q93T40 1-256): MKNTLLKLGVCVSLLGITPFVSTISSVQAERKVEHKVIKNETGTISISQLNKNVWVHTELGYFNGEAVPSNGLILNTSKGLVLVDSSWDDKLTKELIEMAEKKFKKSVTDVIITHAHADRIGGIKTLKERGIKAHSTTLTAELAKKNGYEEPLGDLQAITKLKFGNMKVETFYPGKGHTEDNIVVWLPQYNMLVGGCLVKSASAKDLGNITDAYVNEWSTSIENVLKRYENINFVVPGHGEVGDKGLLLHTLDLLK

In the case of `CCCCCCCOc1cccc(C(=O)NO)c1` [3-(heptyloxy)-N-hydroxybenzamide], the inhibition (Bla2 [1]) is listed as “no inhibition”.
For “3-chloro-N-hydroxy-4-(7-(hydroxyamino)-7-oxoheptyl)benzamide [Compound 4]”, the IC50 (Bla2 [2]; pH 7, read-out: IC50) was 20 ± 5 µM, the Ki (Bla2 [3]) was 6.4 ± 1.7 µM and the mode of inhibition (Bla2 [3]) was “competitive inhibition”. For the same molecule, the Ki (Bla2 [3]; pH 7) was 6.4 ± 1.7 µM.
For `O=C(CCCCCCC(=O)Nc1ccccc1)NO` [SAHA, suberoylanilide hydroxamic acid, reference compound], the IC50 (Bla2 [2]) was > 100 µM.
With “N-hydroxy-4-(7-(hydroxyamino)-7-oxoheptyl)-3-methoxybenzamide [Compound 6]” the IC50 (Bla2 [2]; pH 7, read-out: IC50) was 14.9 ± 9.8 µM, the Ki (Bla2 [3]) was 4.7 ± 1.4 µM and the mode of inhibition (Bla2 [3]) was “competitive inhibition”. For the same molecule, the Ki (Bla2 [3]; pH 7) was 4.7 ± 1.4 µM.
For `O=C(CCCCCOc1cccc(C(=O)NO)c1)NO` [N-hydroxy-3-((6-(hydroxyamino)-6-oxohexyl)oxy)benzamide], the inhibition (Bla2 [1]) is listed as “significant inhibition”.
